Where “and” joins values, the source holds several entries; their conditions need not be identical. Equal entries are not always repeated.
Experiment: NHP health screening: serum chemistry
Format: in vivo, rhesus macaques (Macaca mulatta)
[1] = Mid-dosing bleed, treated animals, individual values
[2] = Post-dosing bleed, treated animals, individual values
[3] = Post-dosing bleed, Mean of treated F animals
[4] = Post-dosing bleed, individual treated animals
[5] = drug-treatment phase, returned to pre-study values by the final blood draw

Procedure: Under light-anesthesia/sedation, peripheral blood samples were collected from each animal prior to treatment and at 7 time points following. Blood analysis (CBC and serum chemistry assays) and physical exams to evaluate the health of the study animals were performed on each animal prior to the beginning of the study and also at three time points during the treatment protocol (see Supplementary data).

Cc1c(C(=O)N[C@H](C(=O)OCC2CCOCC2)C(C)C)ccc2c1B(O)OC2 [AN15368]
Glob [1]: 3.3 G/Dl and 3.1 G/Dl and 2.8 G/Dl and 3.4 G/Dl and 2.9 G/Dl and 4.1 G/Dl and 3.8 G/Dl and 2.7 G/Dl and 2.5 G/Dl and 3 G/Dl and 3.5 G/Dl and 3.2 G/Dl
Gluc [1]: 69 Mg/Dl and 72 Mg/Dl and 58 Mg/Dl and 65 Mg/Dl and 66 Mg/Dl and 56 Mg/Dl and 73 Mg/Dl and 55 Mg/Dl and 63 Mg/Dl and 70 Mg/Dl and 48 Mg/Dl and 54 Mg/Dl and 79 Mg/Dl and 68 Mg/Dl and 53 Mg/Dl
K [1]: 3.9 Meq/L and 3.6 Meq/L and 3.3 Meq/L and 3.4 Meq/L and 3.5 Meq/L and 4.3 Meq/L and 3.8 Meq/L and 3.7 Meq/L
Ldh [1]: 473 Iu/L and 139 Iu/L and 164 Iu/L and 148 Iu/L and 134 Iu/L and 214 Iu/L and 259 Iu/L and 376 Iu/L and 250 Iu/L and 266 Iu/L and 183 Iu/L and 238 Iu/L and 449 Iu/L and 154 Iu/L and 213 Iu/L and 475 Iu/L and 156 Iu/L and 198 Iu/L and 375 Iu/L
Na [1]: 148 Meq/L and 150 Meq/L and 147 Meq/L and 144 Meq/L and 149 Meq/L and 146 Meq/L and 152 Meq/L
Osmo [1]: 284 Mosm/Kg and 289 Mosm/Kg and 281 Mosm/Kg and 283 Mosm/Kg and 288 Mosm/Kg and 276 Mosm/Kg and 286 Mosm/Kg and 280 Mosm/Kg and 287 Mosm/Kg and 293 Mosm/Kg and 285 Mosm/Kg and 282 Mosm/Kg
Phos [1]: 3.3 Mg/Dl and 3.8 Mg/Dl and 2 Mg/Dl and 2.4 Mg/Dl and 1 Mg/Dl and 2.2 Mg/Dl and 3.9 Mg/Dl and 2.5 Mg/Dl and 3.6 Mg/Dl and 3.1 Mg/Dl and 1.8 Mg/Dl and 4.8 Mg/Dl and 3.2 Mg/Dl
Tbil [1]: 0.18 Mg/Dl and 0.17 Mg/Dl and 0.14 Mg/Dl and 0.2 Mg/Dl and 0.16 Mg/Dl and 0.19 Mg/Dl and 0.15 Mg/Dl and 0.13 Mg/Dl
Tco2 [1]: 26 Meq/L and 28 Meq/L and 27 Meq/L and 25 Meq/L and 30 Meq/L and 24 Meq/L
Tibc [1]: 376 µg/dL and 358 µg/dL and 410 µg/dL and 408 µg/dL and 348 µg/dL and 343 µg/dL and 359 µg/dL and 373 µg/dL and 383 µg/dL and 429 µg/dL and 377 µg/dL and 326 µg/dL and 340 µg/dL and 412 µg/dL and 337 µg/dL and 324 µg/dL and 325 µg/dL
Tp [1]: 7.2 G/Dl and 6.7 G/Dl and 7.3 G/Dl and 7.5 G/Dl and 6.4 G/Dl and 7 G/Dl and 6.9 G/Dl and 6.5 G/Dl and 6.8 G/Dl and 6.6 G/Dl
Trig [1]: 99 Mg/Dl and 148 Mg/Dl and 81 Mg/Dl and 85 Mg/Dl and 108 Mg/Dl and 72 Mg/Dl and 32 Mg/Dl and 141 Mg/Dl and 65 Mg/Dl and 82 Mg/Dl and 79 Mg/Dl and 102 Mg/Dl and 29 Mg/Dl and 76 Mg/Dl and 70 Mg/Dl and 62 Mg/Dl and 66 Mg/Dl and 95 Mg/Dl
Agap [2]: 16 Meq/L and 14 Meq/L
Alb [2]: 3.9 G/Dl and 3.7 G/Dl
Alp [2]: 111 Iu/L and 100 Iu/L and 77 Iu/L
Alt [2]: 52 Iu/L and 63 Iu/L and 59 Iu/L
Ast [2]: 26 Iu/L and 34 Iu/L and 32 Iu/L
Bun [2]: 17 Mg/Dl and 14 Mg/Dl
Ca [2]: 9.5 Mg/Dl and 8.9 Mg/Dl
Chol [2]: 187 mg/dL and 193 mg/dL and 141 mg/dL
Ck [2]: 260 Iu/L and 337 Iu/L and 328 Iu/L
Cl [2]: 107 Meq/L and 111 Meq/L
Crea [2]: 0.58 Mg/Dl and 0.78 Mg/Dl and 0.68 Mg/Dl
Fe [2]: 135 µg/dL and 99 µg/dL and 93 µg/dL
Ggt [2]: 41 Iu/L and 54 Iu/L and 38 Iu/L
Glob [2]: 3.3 G/Dl and 3.1 G/Dl and 2.9 G/Dl
Gluc [2]: 63 Mg/Dl and 84 Mg/Dl and 51 Mg/Dl
K [2]: 3.5 Meq/L and 3.4 Meq/L
Ldh [2]: 217 Iu/L and 509 Iu/L and 322 Iu/L
Na [2]: 147 Meq/L and 146 Meq/L and 148 Meq/L
Osmo [2]: 283 Mosm/Kg and 281 Mosm/Kg and 284 Mosm/Kg
Phos [2]: 4.6 Mg/Dl and 3.2 Mg/Dl and 2.1 Mg/Dl
Tbil [2]: 0.19 Mg/Dl and 0.14 Mg/Dl and 0.12 Mg/Dl
Tco2 [2]: 28 Meq/L and 26 Meq/L
Tibc [2]: 357 µg/dL and 333 µg/dL and 388 µg/dL
Tp [2]: 7.2 G/Dl and 6.8 G/Dl and 6.6 G/Dl
Trig [2]: 64 Mg/Dl and 152 Mg/Dl and 111 Mg/Dl
Agap [3]: 15.0556 Meq/L
Alb [3]: 3.833 G/Dl
Alp [3]: 103.5 Iu/L
Alt [3]: 52.5556 Iu/L
Ast [3]: 30.8889 Iu/L
Bun [3]: 14.9444 Mg/Dl
Ca [3]: 9.256 Mg/Dl
Chol [3]: 143.944 mg/dL
Ck [3]: 504.722 Iu/L
Cl [3]: 109.722 Meq/L
Crea [3]: 0.695 Mg/Dl
Fe [3]: 115.333 µg/dL
Ggt [3]: 47 Iu/L
Glob [3]: 3.178 G/Dl
Gluc [3]: 64.6667 Mg/Dl
K [3]: 3.617 Meq/L
Ldh [3]: 322.722 Iu/L
Na [3]: 147.667 Meq/L
Osmo [3]: 283.5 Mosm/Kg
Phos [3]: 3.244 Mg/Dl
Tbil [3]: 0.1383 Mg/Dl
Tco2 [3]: 26.6111 Meq/L
Tibc [3]: 363.444 µg/dL
Tp [3]: 7.006 G/Dl
Trig [3]: 77.7222 Mg/Dl
Agap [4]: 14 Meq/L and 13 Meq/L and 17 Meq/L and 15 Meq/L and 19 Meq/L
Alb [4]: 3.7 G/Dl and 3.8 G/Dl and 3.6 G/Dl and 3.3 G/Dl and 3.5 G/Dl and 4.1 G/Dl and 4.2 G/Dl and 4 G/Dl and 3.4 G/Dl and 3.9 G/Dl
Alp [4]: 195 Iu/L and 100 Iu/L and 87 Iu/L and 122 Iu/L and 132 Iu/L and 143 Iu/L and 66 Iu/L and 83 Iu/L and 80 Iu/L and 105 Iu/L and 138 Iu/L and 102 Iu/L and 69 Iu/L and 79 Iu/L
Alt [4]: 97 Iu/L and 39 Iu/L and 41 Iu/L and 87 Iu/L and 35 Iu/L and 91 Iu/L and 28 Iu/L and 31 Iu/L and 48 Iu/L and 71 Iu/L and 43 Iu/L and 46 Iu/L and 64 Iu/L
Ast [4]: 40 Iu/L and 30 Iu/L and 31 Iu/L and 28 Iu/L and 27 Iu/L and 20 Iu/L and 42 Iu/L and 18 Iu/L and 26 Iu/L and 32 Iu/L and 45 Iu/L and 35 Iu/L
Bun [4]: 12 Mg/Dl and 16 Mg/Dl and 17 Mg/Dl and 10 Mg/Dl and 18 Mg/Dl and 15 Mg/Dl and 13 Mg/Dl and 20 Mg/Dl and 11 Mg/Dl and 14 Mg/Dl
Ca [4]: 9.1 Mg/Dl and 8.8 Mg/Dl and 9 Mg/Dl and 9.3 Mg/Dl and 9.8 Mg/Dl and 9.2 Mg/Dl and 9.6 Mg/Dl and 9.4 Mg/Dl and 9.5 Mg/Dl and 8.7 Mg/Dl
Chol [4]: 121 mg/dL and 130 mg/dL and 133 mg/dL and 163 mg/dL and 147 mg/dL and 123 mg/dL and 150 mg/dL and 157 mg/dL and 141 mg/dL and 125 mg/dL and 129 mg/dL and 155 mg/dL and 160 mg/dL and 115 mg/dL and 127 mg/dL
Ck [4]: 628 Iu/L and 657 Iu/L and 306 Iu/L and 255 Iu/L and 667 Iu/L and 292 Iu/L and 656 Iu/L and 625 Iu/L and 240 Iu/L and 479 Iu/L and 309 Iu/L and 783 Iu/L and 341 Iu/L and 1583 Iu/L and 339 Iu/L and 291 Iu/L
Cl [4]: 109 Meq/L and 111 Meq/L and 108 Meq/L and 113 Meq/L and 110 Meq/L and 107 Meq/L
Crea [4]: 0.68 Mg/Dl and 0.84 Mg/Dl and 0.9 Mg/Dl and 0.6 Mg/Dl and 0.64 Mg/Dl and 0.7 Mg/Dl and 0.75 Mg/Dl and 0.83 Mg/Dl and 0.62 Mg/Dl and 0.65 Mg/Dl and 0.78 Mg/Dl and 0.66 Mg/Dl and 0.53 Mg/Dl
Fe [4]: 123 µg/dL and 100 µg/dL and 104 µg/dL and 102 µg/dL and 72 µg/dL and 129 µg/dL and 105 µg/dL and 154 µg/dL and 174 µg/dL and 67 µg/dL and 109 µg/dL and 144 µg/dL and 159 µg/dL and 136 µg/dL
Ggt [4]: 47 Iu/L and 54 Iu/L and 63 Iu/L and 53 Iu/L and 51 Iu/L and 30 Iu/L and 52 Iu/L and 29 Iu/L and 39 Iu/L and 31 Iu/L and 89 Iu/L and 35 Iu/L and 42 Iu/L
Glob [4]: 3.3 G/Dl and 2.9 G/Dl and 4 G/Dl and 3.5 G/Dl and 3 G/Dl and 3.2 G/Dl and 2.7 G/Dl and 2.8 G/Dl and 3.4 G/Dl
Gluc [4]: 67 Mg/Dl and 57 Mg/Dl and 69 Mg/Dl and 65 Mg/Dl and 74 Mg/Dl and 62 Mg/Dl and 70 Mg/Dl and 48 Mg/Dl and 50 Mg/Dl and 58 Mg/Dl and 66 Mg/Dl and 75 Mg/Dl and 86 Mg/Dl and 44 Mg/Dl and 51 Mg/Dl
K [4]: 3.6 Meq/L and 3.5 Meq/L and 3.7 Meq/L and 4.4 Meq/L and 3.4 Meq/L and 3.8 Meq/L
Ldh [4]: 356 Iu/L and 197 Iu/L and 294 Iu/L and 209 Iu/L and 260 Iu/L and 107 Iu/L and 225 Iu/L and 392 Iu/L and 204 Iu/L and 300 Iu/L and 485 Iu/L and 796 Iu/L and 178 Iu/L and 365 Iu/L and 393 Iu/L and 524 Iu/L
Na [4]: 147 Meq/L and 150 Meq/L and 148 Meq/L and 151 Meq/L and 146 Meq/L and 149 Meq/L and 145 Meq/L
Osmo [4]: 281 Mosm/Kg and 288 Mosm/Kg and 283 Mosm/Kg and 282 Mosm/Kg and 284 Mosm/Kg and 291 Mosm/Kg and 280 Mosm/Kg and 286 Mosm/Kg and 279 Mosm/Kg and 287 Mosm/Kg
Phos [4]: 2.4 Mg/Dl and 1.8 Mg/Dl and 1.9 Mg/Dl and 2.7 Mg/Dl and 3.6 Mg/Dl and 3.8 Mg/Dl and 4.7 Mg/Dl and 2.9 Mg/Dl and 3.7 Mg/Dl and 5.2 Mg/Dl and 2.1 Mg/Dl and 4.6 Mg/Dl and 4.3 Mg/Dl and 4 Mg/Dl
Tbil [4]: 0.15 Mg/Dl and 0.13 Mg/Dl and 0.1 Mg/Dl and 0.14 Mg/Dl and 0.17 Mg/Dl and 0.12 Mg/Dl and 0.11 Mg/Dl and 0.16 Mg/Dl
Tco2 [4]: 28 Meq/L and 30 Meq/L and 26 Meq/L and 25 Meq/L and 24 Meq/L and 29 Meq/L and 23 Meq/L
Tibc [4]: 379 µg/dL and 363 µg/dL and 332 µg/dL and 367 µg/dL and 386 µg/dL and 356 µg/dL and 359 µg/dL and 419 µg/dL and 437 µg/dL and 354 µg/dL and 325 µg/dL and 353 µg/dL and 316 µg/dL and 309 µg/dL
Tp [4]: 7 G/Dl and 6.7 G/Dl and 7.6 G/Dl and 6.8 G/Dl and 7.5 G/Dl and 7.1 G/Dl and 6.9 G/Dl and 7.2 G/Dl
Trig [4]: 78 Mg/Dl and 58 Mg/Dl and 56 Mg/Dl and 74 Mg/Dl and 63 Mg/Dl and 59 Mg/Dl and 42 Mg/Dl and 61 Mg/Dl and 158 Mg/Dl and 51 Mg/Dl and 44 Mg/Dl and 113 Mg/Dl and 93 Mg/Dl and 100 Mg/Dl
alanine aminotransferase (ALT), mean value [5]: mildly elevated
alkaline phosphatase (ALP), mean value [5]: mildly elevated

Reference: publication PMC9519446, “Discovery of an Orally Active Benzoxaborole Prodrug Effective in the Treatment of Chagas Disease in Non-human Primates” (Nature microbiology, 2022)
